Data set [1] in a line: Liver microsomal stability, human liver microsomes. The following applies: 1 μM compound, NADPH, read-out: t1/2 (min) in HLM. It is filed as in vitro ADME. Put shortly:
(§1)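 Compound (1 μM final) was incubated with prewarmed human or rat liver microsomes (1 mg/mL in 100 mM phosphate master mix) plus NADPH; aliquots at 0.5–30 minutes were quenched in cold acetonitrile and quantified by LC-MS/MS. Half-life came from the ln(% remaining) versus time slope, converted to CLint (μL/min/mg prot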

Data set [2] can be described thus: Liver microsomal stability, rat liver microsomes. The data set is classed as in vitro ADME. The conditions noted are these: 1 μM compound, NADPH, read-out: t1/2 (min) in RLM. Summed up: as §1
Data set [3] can be described thus: ADME solubility determination at pH 2.0 and pH 7.4. It is filed as physicochemical. The following applies: aqueous buffer, thermodynamic from solid, LC-MS/MS. Summed up:
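Dried residues of 10 mM DMSO stocks were shaken in PBS pH 7.4 or pH 2.0 for 24 hours at 25° C. and 1,100 rpm. After centrifugation, supernatants were quantified by LC-MS/MS against a standard of known concentration, applying a dilution factor.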

The mark [4] stands for this setting: PBS pH 2.0, shaken at 25° C. for 24 hours, read-out: Solubility at pH 2.0.
Setting [5] is: PBS pH 7.4, shaken at 25° C. for 24 hours, read-out: Solubility at pH 7.4.

Results on 24 compounds are retold here after patent US11485736B2 (KSQ Therapeutics, Inc., priority 2018, dated 2022).

As a reminder, the solubility is the concentration that dissolves in the medium under given conditions.

Molecules are shown by their SMILES. Read-outs that look alike come from different tables or passages of the source.

Take `COc1ncnc(C2CC2)c1-c1ncc2cnn(Cc3ccc(-c4nc(C(F)(F)F)sc4C)cc3)c2n1` [Example 125]: the half-life at 1 μM in data set [1] and in data set [2] was above 25 min in each case. Also, the solubility at 24 h in data set [3] (setting [4]) and in data set [3] (setting [5]) was below 10 µM throughout.
On to `COc1ncnc(C2CC2)c1-c1ncc2cnn(Cc3ccc(-c4nc(C(F)(F)F)oc4C)cc3)c2n1` [Example 127], for which the half-life at 1 μM in data set [1] and in data set [2] was above 25 min in each case. Further, the solubility at 24 h in data set [3] (setting [4]) and in data set [3] (setting [5]) was below 10 µM each time.
As for `CCn1cc(C(F)(F)F)nc1-c1ccc(Cn2ncc3cnc(-c4c(OC)ncnc4C4CC4)nc32)cc1OC` [Example 128], the half-life at 1 μM was above 25 min in data set [1] and below 25 min in data set [2]. Moreover, the solubility at 24 h in data set [3] (setting [4]) and in data set [3] (setting [5]) was above 10 µM each time.
Turning to `COc1cc(Cn2ncc3cnc(-c4c(OC)ncnc4C4CC4)nc32)ccc1-c1nc(C(F)(F)F)cn1CCF` [Example 129], the half-life at 1 μM in data set [1] and in data set [2] was above 25 min each time. In addition, the solubility at 24 h was above 10 µM in data set [3] (setting [4]) and below 10 µM in data set [3] (setting [5]).
Turning to `COc1ncnc(C2CC2)c1-c1ncc2cnn(Cc3ccc(-c4nc5c(F)cccc5n4C)cc3)c2n1` [Example 131], the half-life at 1 μM in data set [1] and in data set [2] was above 25 min each time. Further, the solubility at 24 h in data set [3] (setting [4]) is above 10 µM; in data set [3] (setting [5]), below 10 µM.
As to `COc1nc(C)nc(C2CC2)c1-c1ncc2cnn(Cc3ccc(-c4nc(C(F)(F)F)cn4C)cc3)c2n1` [Example 133, 6-(4-Cyclopropyl-6-methoxy-2-methylpyrimidin-5-yl)-1-(4-(1-methyl-4-(trifluoromethyl)-1H-imidazol-2-yl)benzyl)-1H-pyrazolo[3,4-d]pyrimidine], the half-life at 1 μM in data set [1] and in data set [2] was below 25 min throughout. For the same compound, the solubility at 24 h in data set [3] (setting [4]) and in data set [3] (setting [5]) was above 10 µM throughout.
Regarding `COc1ncnc(C2CC2)c1-c1ncc2cnn(Cc3ccc(-c4nc(C(F)(F)F)c[nH]4)cc3)c2n1` [Example 134, 6-(4-cyclopropyl-6-methoxypyrimidin-5-yl)-1-(4-(4-(trifluoromethyl)-1H-imidazol-2-yl)benzyl)-1H-pyrazolo[3,4-d]pyrimidine], the half-life at 1 μM in data set [1] and in data set [2] was above 25 min throughout. Further, the solubility at 24 h in data set [3] (setting [4]) and in data set [3] (setting [5]) was below 10 µM throughout.
For `COc1ncnc(C2CC2)c1-c1ncc2cnn(Cc3ccc(-c4nc(C(F)(F)F)c5n4CCNC5)cc3)c2n1` [Example 136, 6-(4-Cyclopropyl-6-methoxypyrimidin-5-yl)-1-(4-(1-(trifluoromethyl)-5,6,7,8-tetrahydroimidazo[1,5-a]pyrazin-3-yl)benzyl)-1H-pyrazolo[3,4-d]pyrimidine], the half-life at 1 μM in data set [1] and in data set [2] was below 25 min throughout. For the same compound, the solubility at 24 h in data set [3] (setting [4]) is above 10 µM; in data set [3] (setting [5]) it was below 10 µM.
Regarding `COc1ncnc(C2CC2)c1-c1ncc2cnn(Cc3ccc(-c4nc(C(F)(F)F)cn4CCF)cc3)c2n1` [Example 137], the half-life at 1 μM in data set [1] and in data set [2] was above 25 min each time. Besides, the solubility at 24 h in data set [3] (setting [4]) and in data set [3] (setting [5]) was above 10 µM in each case.
In the case of `COc1ncnc(C2CC2)c1-c1ncc2cnn(Cc3ccc(-c4nc(C(F)(F)F)cn4CC(F)F)cc3)c2n1` [Example 138], the half-life at 1 μM in data set [1] and in data set [2] was above 25 min throughout. The solubility at 24 h in data set [3] (setting [4]) and in data set [3] (setting [5]) was above 10 µM throughout.
`[2H]C([2H])([2H])C([2H])([2H])n1cc(C(F)(F)F)nc1-c1ccc(Cn2ncc3cnc(-c4c(OC)ncnc4C4CC4)nc32)cc1` [Example 139]: the half-life at 1 μM in data set [1] and in data set [2] was above 25 min in each case. Also, the solubility at 24 h in data set [3] (setting [4]) and in data set [3] (setting [5]) was above 10 µM in each case.
Turning to `[2H]C([2H])([2H])C([2H])(n1cc(C(F)(F)F)nc1-c1ccc(Cn2ncc3cnc(-c4c(OC)ncnc4C4CC4)nc32)cc1)C([2H])([2H])[2H]` [Example 140], the half-life at 1 μM in data set [1] and in data set [2] was above 25 min in each case. The solubility at 24 h in data set [3] (setting [4]) and in data set [3] (setting [5]) was below 10 µM each time.
Turning to `COc1ncnc(C2CC2)c1-c1ncc2cnn(C(C)c3ccc(-c4nc(C(F)(F)F)cn4CCF)cc3)c2n1` (stereo not drawn) [Example 141], the half-life at 1 μM in data set [1] and in data set [2] was above 25 min in each case. Besides, the solubility at 24 h was above 10 µM in data set [3] (setting [4]) and below 10 µM in data set [3] (setting [5]).
As for `COc1ncnc(C2CC2)c1-c1ncc2cnn(Cc3ccc(-c4nc(C(F)(F)F)cn4CC(C)F)cc3)c2n1` (stereo not drawn) [Example 142], the results for the half-life at 1 μM in data set [1] and in data set [2] were above 25 min and below 25 min, respectively. The solubility at 24 h in data set [3] (setting [4]) is above 10 µM; in data set [3] (setting [5]), below 10 µM.
The matching figures for `COc1ncnc(C2CC2)c1-c1ncc2cnn(Cc3ccc(-c4nc(C(F)(F)F)cn4C(C)C)cc3)c2n1` [Example 143]: above 25 min, above 25 min, below 10 µM and below 10 µM.
The matching figures for `COc1ncnc(C2CC2)c1-c1ncc2cnn(Cc3ccc(-c4nc(C(F)(F)F)cn4C4CCC4)cc3)c2n1` [Example 144]: above 25 min, below 25 min, below 10 µM and below 10 µM.
Regarding `COc1ncnc(C2CC2)c1-c1ncc2cnn(Cc3ccc(-c4nc(C(F)(F)F)cn4C4COC4)cc3)c2n1` [Example 145], the figures for the half-life at 1 μM in data set [1] and in data set [2] were above 25 min and below 25 min, respectively. The solubility at 24 h in data set [3] (setting [4]) and in data set [3] (setting [5]) was above 10 µM in each case.
Turning to `COc1ncnc(C2CC2)c1-c1ncc2cnn(Cc3ccc(-c4nc(C(F)(F)F)cn4C4CCOC4)cc3)c2n1` (stereo not drawn) [Example 146], the half-life at 1 μM in data set [1] and in data set [2] was below 25 min throughout. In addition, the solubility at 24 h in data set [3] (setting [4]) and in data set [3] (setting [5]) was above 10 µM throughout.
Regarding `CCn1cc(C#N)nc1-c1ccc(Cn2ncc3cnc(-c4c(OC)ncnc4C4CC4)nc32)cc1` [Example 148, 2-(4-((6-(4-cyclopropyl-6-methoxypyrimidin-5-yl)-1H-pyrazolo[3,4-d]pyrimidin-1-yl)methyl)phenyl)-1-ethyl-1H-imidazole-4-carbonitrile], the half-life at 1 μM in data set [1] and in data set [2] was below 25 min in each case. Moreover, the solubility at 24 h in data set [3] (setting [4]) and in data set [3] (setting [5]) was below 10 µM each time.
As for `COCC(C)n1cc(C(F)(F)F)nc1-c1ccc(Cn2ncc3cnc(-c4c(OC)ncnc4C4CC4)nc32)cc1` (stereo not drawn) [Example 150, 6-(4-cyclopropyl-6-methoxypyrimidin-5-yl)-1-(4-(1-(1-methoxypropan-2-yl)-4-(trifluoromethyl)-1H-imidazol-2-yl)benzyl)-1H-pyrazolo[3,4-d]pyrimidine], the half-life at 1 μM in data set [1] and in data set [2] was below 25 min throughout. Besides, the solubility at 24 h in data set [3] (setting [4]) and in data set [3] (setting [5]) was above 10 µM each time.
Regarding `COc1ncnc(C2CC2)c1-c1ncc2cnn(Cc3ccc(-c4nc(C(F)(F)F)cn4C(C)CF)cc3)c2n1` (stereo not drawn) [Example 151, 6-(4-cyclopropyl-6-methoxypyrimidin-5-yl)-1-(4-(1-(1-fluoropropan-2-yl)-4-(trifluoromethyl)-1H-imidazol-2-yl)benzyl)-1H-pyrazolo[3,4-d]pyrimidine], the half-life at 1 μM in data set [1] and in data set [2] was above 25 min each time. Also, the solubility at 24 h in data set [3] (setting [4]) and in data set [3] (setting [5]) was above 10 µM in each case.
As to `CC(C)c1ccccc1-c1ncc2cnn(Cc3ccc(-c4nc(C(F)(F)F)cn4C4CN(C)C4)cc3)c2n1` [Example 152, 6-(2-Isopropylphenyl)-1-(4-(1-(1-methylazetidin-3-yl)-4-(trifluoromethyl)-1H-imidazol-2-yl)benzyl)-1H-pyrazolo[3,4-d]pyrimidine], the half-life at 1 μM in data set [1] and in data set [2] was below 25 min throughout. The solubility at 24 h in data set [3] (setting [4]) and in data set [3] (setting [5]) was above 10 µM in each case.
For `COc1ncnc(C2CC2)c1-c1ncc2cnn(Cc3ccc(-c4nc(C(F)(F)F)cn4C4CN(C)C4)cc3)c2n1` [Example 153], the half-life at 1 μM in data set [1] and in data set [2] was below 25 min in each case. For the same compound, the solubility at 24 h is above 10 µM in data set [3] (phosphate buffered saline, PBS pH 2.0, shaken at 25° C. for 24 hours, read-out: Solubility at pH 2.0) and above 10 µM in data set [3] (phosphate buffered saline, PBS pH 7.4, shaken at 25° C. for 24 hours, read-out: Solubility at pH 7.4).
Regarding `COc1ncnc(C2CC2)c1-c1ncc2cnn(Cc3ccc(-c4nc(C(F)(F)F)cn4C4CC4)cc3)c2n1` [Example 154, 1-(4-(1-Cyclopropyl-4-(trifluoromethyl)-1H-imidazol-2-yl)benzyl)-6-(4-cyclopropyl-6-methoxypyrimidin-5-yl)-1H-pyrazolo[3,4-d]pyrimidine], the half-life at 1 μM in data set [1] and in data set [2] was above 25 min in each case. In addition, the solubility at 24 h in data set [3] (setting [4]) and in data set [3] (setting [5]) was below 10 µM throughout.
